# Results: US20240016894A1, “METHODS AND MATERIALS FOR AMELIORATING CREATINE DEFICIENCY DISORDERS” (The Regents of the University of California, priority 2022, published 2024)
# System: Gamt−/− mice
# Assay: (18F)-FDG PET brain glucose uptake
# Assay type: in vivo, mouse
# Details: Gamt-deficient mice; sequence regular chow (5.24±0.76), oral creatine supplementation, then AAV (regular chow only)
# Excerpt: Considering the importance of the creatine/phosphocreatine shuttle to cells with high-energy expenditures, we examined the uptake of glucose to the brain in Gamt-deficient mice. Fluorodeoxyglucose (18(F)-FDG)-positron-emission tomography (PET) is a well-established non-invasive imaging tool for monitoring changes in cerebral brain glucose metabolism in vivo. To examine restoration of hepatic Gamt and its effect as a treatment strategy in GAMT deficiency, we sought to examine the brain of this preclinical model. By measuring cerebral glucose metabolism with (18F)-FDG-PET we can detect neuronal dysfunction in vivo as brain glucose metabolism is determined by synaptic activity mainly in order to restore membrane potentials (26). To semi-quantitate tissue activity, we determined the activity divided by the decay-corrected activity injected into the mouse; this ratio is defined as the percent-injected dose per cubic centimeter in tissue (% ID/cc). […]
# We evaluated if there was a substantial improvement in brain metabolism with restoration of GAMT activity in hepatocytes with a gene therapy approach and compared this to present day therapy with oral creatine supplementation. […]
# Animals were anesthetized with 1.5% vaporized isoflurane, and injected with (18F)-FDG via tail vein. […] Co-registered PET/CT data were analyzed and quantified using AMIDE software. […]
smiles,measurement,value
CN(CC(=O)O)C(=N)N [creatine],"Brain (18F)-FDG uptake, each mouse its own control",5.26±1.10 % ID/cc
